Measurements from ChEMBL document CHEMBL1137050, “Design and synthesis of 4-phenyl piperidine compounds targeting the mu receptor” (Bioorg Med Chem Lett, 2004).

What follows are compounds tested against Mu opioid receptor (Rattus norvegicus) (UniProt P33535) (assay: Partial agonistic activity by its ability to stimulate GTP gamma S binding in comparison to DAMGO).
Mu opioid receptor (Rattus norvegicus), sequence (P33535 whole entry, looked up): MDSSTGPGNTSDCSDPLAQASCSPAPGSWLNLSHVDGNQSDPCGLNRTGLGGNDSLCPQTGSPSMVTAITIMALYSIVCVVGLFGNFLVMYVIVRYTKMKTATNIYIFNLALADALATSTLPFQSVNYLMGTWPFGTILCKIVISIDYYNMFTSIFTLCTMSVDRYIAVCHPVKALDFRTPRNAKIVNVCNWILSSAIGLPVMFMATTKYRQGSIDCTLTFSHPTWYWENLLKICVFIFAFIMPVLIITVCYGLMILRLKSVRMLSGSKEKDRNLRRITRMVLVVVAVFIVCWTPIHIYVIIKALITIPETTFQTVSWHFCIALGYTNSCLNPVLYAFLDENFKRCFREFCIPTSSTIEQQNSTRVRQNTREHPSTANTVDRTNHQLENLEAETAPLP
With OC1(c2ccc(Cl)c(C(F)(F)F)c2)CCN(CCC(c2ccccc2)c2ccccc2)CC1 the Activity was > 10%.

The compounds below were run against Nociceptin receptor (Rattus norvegicus) (UniProt P35370) (assay: Agonistic activity by its ability to stimulate NOP in comparison to DAMGO).
Nociceptin receptor (Rattus norvegicus), sequence (P35370 whole entry): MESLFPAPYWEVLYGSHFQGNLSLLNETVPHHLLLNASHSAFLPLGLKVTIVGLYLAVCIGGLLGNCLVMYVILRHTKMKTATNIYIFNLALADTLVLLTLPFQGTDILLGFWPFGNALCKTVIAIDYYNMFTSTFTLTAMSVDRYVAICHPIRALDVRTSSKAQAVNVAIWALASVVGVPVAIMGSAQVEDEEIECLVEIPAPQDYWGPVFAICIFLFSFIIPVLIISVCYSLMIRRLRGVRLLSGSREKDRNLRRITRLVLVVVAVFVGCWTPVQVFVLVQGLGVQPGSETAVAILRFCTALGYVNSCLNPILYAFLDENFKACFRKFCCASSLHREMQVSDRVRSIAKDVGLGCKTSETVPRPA
Format: functional
With CN(C)C(=O)C(CCN1CCC(O)(c2cccc(C(F)(F)F)c2)CC1)(c1ccccc1)c1ccccc1 the Activity was > 75%. In the case of COC(=O)C(CCN1CCC(O)(c2ccc(Cl)c(C(F)(F)F)c2)CC1)(c1ccccc1)c1ccccc1, the Activity is reported as > 75%. For COC(=O)C(CCN1CCC(O)(c2cccc(C(F)(F)F)c2)CC1)(c1ccccc1)c1ccccc1, the Activity was > 75%. COC(=O)C(CCN1CCC(O)(c2ccc(Cl)cc2)CC1)(c1ccccc1)c1ccccc1 was tested, and the Activity was > 75%. OC1(c2cccc(C(F)(F)F)c2)CCN(CCC(c2ccccc2)c2ccccc2)CC1 was tested, and the Activity was > 75%.

These compounds were tested against T1, Nociceptin receptor (Homo sapiens, UniProt P41146) (assay: Binding affinity for opioid receptor like 1 expressed in HEK293 cells).
T1 sequence (P41146 whole entry): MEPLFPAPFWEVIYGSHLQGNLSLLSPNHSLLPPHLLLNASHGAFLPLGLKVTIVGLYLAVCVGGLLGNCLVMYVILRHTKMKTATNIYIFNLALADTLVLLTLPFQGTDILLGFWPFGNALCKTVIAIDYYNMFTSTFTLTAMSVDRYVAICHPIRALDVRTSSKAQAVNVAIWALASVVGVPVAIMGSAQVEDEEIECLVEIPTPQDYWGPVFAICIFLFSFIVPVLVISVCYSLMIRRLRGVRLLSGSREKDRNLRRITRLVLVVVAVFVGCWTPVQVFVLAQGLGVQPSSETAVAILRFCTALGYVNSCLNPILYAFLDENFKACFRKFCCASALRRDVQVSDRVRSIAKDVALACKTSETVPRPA
Format: cell-based
In the case of CN(C)C(=O)C(CCN1CCC(O)(c2cccc(C(F)(F)F)c2)CC1)(c1ccccc1)c1ccccc1, the Ki is reported as 505 nM. With CN(C)C(=O)C(CCN1CCC(O)(c2ccc(Cl)c(C(F)(F)F)c2)CC1)(c1ccccc1)c1ccccc1 [FLUPERAMIDE] the Ki was 2150 nM. In the case of [O-][N+]1(CCC(c2ccccc2)c2ccccc2)CCC(O)(c2cccc(C(F)(F)F)c2)CC1 (stereo not drawn), the Ki is reported as > 10000 nM. With [O-][N+]1(Cc2ccc3ccccc3c2)CCC(O)(c2ccc(Cl)c(C(F)(F)F)c2)CC1 (stereo not drawn) the Ki was > 10000 nM. COC(=O)C(CCN1CCC(O)(c2ccc(Cl)c(C(F)(F)F)c2)CC1)(c1ccccc1)c1ccccc1 was tested, and the Ki was 149 nM. With CN(C)C(=O)C(CCN1CCC(O)(c2ccc(Cl)cc2)CC1)(c1ccccc1)c1ccccc1 [LOPERAMIDE] the Ki was > 10000 nM. In the case of [O-][N+]1(CCC(c2ccccc2)c2ccccc2)CCC(O)(c2ccc(Cl)c(C(F)(F)F)c2)CC1 (stereo not drawn), the Ki is reported as > 10000 nM. For COC(=O)C(CCN1CCC(O)(c2cccc(C(F)(F)F)c2)CC1)(c1ccccc1)c1ccccc1, the Ki was 78 nM. O=C(O)C(CCN1CCC(O)(c2ccc(Cl)c(C(F)(F)F)c2)CC1)(c1ccccc1)c1ccccc1 was tested, and the Ki was > 10000 nM. With COC(=O)C(CCN1CCC(O)(c2ccc(Cl)cc2)CC1)(c1ccccc1)c1ccccc1 the Ki was 590 nM. In the case of O=C(O)C(CCN1CCC(O)(c2ccc(Cl)cc2)CC1)(c1ccccc1)c1ccccc1, the Ki is reported as > 10000 nM. With OC1(c2ccc(Cl)cc2)CCN(CCC(c2ccccc2)c2ccccc2)CC1 the Ki was 372 nM. With O=C(O)C(CCN1CCC(O)(c2cccc(C(F)(F)F)c2)CC1)(c1ccccc1)c1ccccc1 the Ki was > 10000 nM.

The compounds below were run against T1, Nociceptin receptor (assay: Partial agonistic activity determined by ability to stimulate GTP gamma S binding in comparison to nociceptin (N/OFQ)).
With OC1(c2ccc(Cl)c(C(F)(F)F)c2)CCN(Cc2ccc(C(F)(F)F)cc2)CC1 the Activity was > 10%. OC1(c2ccc(Cl)cc2)CCN(CCC(c2ccccc2)c2ccccc2)CC1 was tested, and the Activity was > 10%.

The compounds below were run against Nociceptin receptor (Rattus norvegicus) (UniProt P35370) (assay: Partial Agonistic activity by its ability to stimulate NOP in comparison to DAMGO).
Format: functional
With OC1(c2ccc(Cl)cc2)CCN(CCC(c2ccccc2)c2ccccc2)CC1 the Activity was > 10%.

Each compound was assayed against T1, Nociceptin receptor (assay: Agonistic activity determined by ability to stimulate GTP gamma S binding in comparison to nociceptin (N/OFQ)).
Set-up: concentration or dose not given beside the values
For CN(C)C(=O)C(CCN1CCC(O)(c2cccc(C(F)(F)F)c2)CC1)(c1ccccc1)c1ccccc1, the Activity was > 75%. In the case of CN(C)C(=O)C(CCN1CCC(O)(c2ccc(Cl)c(C(F)(F)F)c2)CC1)(c1ccccc1)c1ccccc1 [FLUPERAMIDE], the Activity is reported as > 75%. In the case of COC(=O)C(CCN1CCC(O)(c2ccc(Cl)c(C(F)(F)F)c2)CC1)(c1ccccc1)c1ccccc1, the Activity is reported as > 75%. For CN(C)C(=O)C(CCN1CCC(O)(c2ccc(Cl)cc2)CC1)(c1ccccc1)c1ccccc1 [LOPERAMIDE], the Activity was > 75%. With COC(=O)C(CCN1CCC(O)(c2cccc(C(F)(F)F)c2)CC1)(c1ccccc1)c1ccccc1 the Activity was > 75%. O=C(O)C(CCN1CCC(O)(c2ccc(Cl)c(C(F)(F)F)c2)CC1)(c1ccccc1)c1ccccc1 was tested, and the Activity was > 75%. In the case of COC(=O)C(CCN1CCC(O)(c2ccc(Cl)cc2)CC1)(c1ccccc1)c1ccccc1, the Activity is reported as > 75%. In the case of O=C(O)C(CCN1CCC(O)(c2ccc(Cl)cc2)CC1)(c1ccccc1)c1ccccc1, the Activity is reported as > 75%. With OC1(c2cccc(C(F)(F)F)c2)CCN(CCC(c2ccccc2)c2ccccc2)CC1 the Activity was > 75%. For OC1(c2ccc(Cl)c(C(F)(F)F)c2)CCN(CCC(c2ccccc2)c2ccccc2)CC1, the Activity was > 75%. For O=C(O)C(CCN1CCC(O)(c2cccc(C(F)(F)F)c2)CC1)(c1ccccc1)c1ccccc1, the Activity was > 75%.

The compounds below were run against Nociceptin receptor (Rattus norvegicus) (UniProt P35370) (assay: Partial agonistic activity by its ability to stimulate NOP in comparison to DAMGO).
Format: functional
With OC1(c2ccc(Cl)c(C(F)(F)F)c2)CCN(Cc2ccc3ccccc3c2)CC1 the Activity was > 10%.

The compounds below were run against Mu-type opioid receptor (Homo sapiens, UniProt P35372) (assay: Binding affinity for recombinant human mu-opioid receptor was determined by using [3H]- diprenophine radioligand).
Mu-type opioid receptor, sequence (P35372 whole entry): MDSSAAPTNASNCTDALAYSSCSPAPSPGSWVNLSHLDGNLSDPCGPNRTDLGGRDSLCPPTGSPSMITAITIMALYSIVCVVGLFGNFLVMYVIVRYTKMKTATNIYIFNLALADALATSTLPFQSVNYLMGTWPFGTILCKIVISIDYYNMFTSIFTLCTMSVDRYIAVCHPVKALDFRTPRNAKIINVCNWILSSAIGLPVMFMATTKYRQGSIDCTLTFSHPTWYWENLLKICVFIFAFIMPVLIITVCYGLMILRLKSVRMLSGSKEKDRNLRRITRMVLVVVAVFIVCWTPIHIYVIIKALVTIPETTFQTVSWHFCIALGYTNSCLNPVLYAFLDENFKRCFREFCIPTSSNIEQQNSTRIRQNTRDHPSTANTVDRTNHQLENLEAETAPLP
CN(C)C(=O)C(CCN1CCC(O)(c2cccc(C(F)(F)F)c2)CC1)(c1ccccc1)c1ccccc1 showed a Ki of 0.16 nM. For CN(C)C(=O)C(CCN1CCC(O)(c2ccc(Cl)c(C(F)(F)F)c2)CC1)(c1ccccc1)c1ccccc1 [FLUPERAMIDE], the Ki was 0.11 nM. In the case of [O-][N+]1(CCC(c2ccccc2)c2ccccc2)CCC(O)(c2cccc(C(F)(F)F)c2)CC1 (stereo not drawn), the Ki is reported as 8130 nM. [O-][N+]1(Cc2ccc3ccccc3c2)CCC(O)(c2ccc(Cl)c(C(F)(F)F)c2)CC1 (stereo not drawn) was tested, and the Ki was > 10000 nM. Work on COC(=O)C(CCN1CCC(O)(c2ccc(Cl)c(C(F)(F)F)c2)CC1)(c1ccccc1)c1ccccc1 yielded a Ki of 0.3 nM. [O-][N+]1(CCC(c2ccccc2)c2ccccc2)CCC(O)(c2ccc(Cl)c(C(F)(F)F)c2)CC1 (stereo not drawn) was tested, and the Ki was > 10000 nM. Compound COC(=O)C(CCN1CCC(O)(c2cccc(C(F)(F)F)c2)CC1)(c1ccccc1)c1ccccc1 has a Ki of 0.11 nM. In the case of N#Cc1ccc(CN2CCC(O)(c3ccc(Cl)c(C(F)(F)F)c3)CC2)cc1, the Ki is reported as > 10000 nM. O=C(O)C(CCN1CCC(O)(c2ccc(Cl)c(C(F)(F)F)c2)CC1)(c1ccccc1)c1ccccc1 gave a Ki of 489 nM. With COC(=O)C(CCN1CCC(O)(c2ccc(Cl)cc2)CC1)(c1ccccc1)c1ccccc1 the Ki was 0.23 nM. OC1(c2ccc(Cl)c(C(F)(F)F)c2)CCN(Cc2ccc(C(F)(F)F)cc2)CC1 showed a Ki of 104 nM. OC1(c2ccc(Cl)cc2)CCN(CCC(c2ccccc2)c2ccccc2)CC1 showed a Ki of 37 nM. OC1(c2ccc(Cl)c(C(F)(F)F)c2)CCN(Cc2ccc3ccccc3c2)CC1 showed a Ki of 2.5 nM. In the case of O=C(O)C(CCN1CCC(O)(c2cccc(C(F)(F)F)c2)CC1)(c1ccccc1)c1ccccc1, the Ki is reported as 331 nM.
